Experimental data: ChEMBL document CHEMBL1201862, “PubChem BioAssay data set” (2004)
Activity calls are given as the source filed them.

What was measured:
[1] = biological target: T1, ATP-dependent translocase ABCB1 (Homo sapiens, UniProt P08183); test: ABCB1 efflux inhibitor potency, dose response, Jurkat-DNR cells, JC-1, flow cytometry, set 2 (AID 504569); type: functional; settings: read-out: EC50_MICROM_;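 further: potency of pump inhibitors that raise cellular JC-1 green fluorescence up to the nicardipine level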
T1 sequence (P08183 whole entry): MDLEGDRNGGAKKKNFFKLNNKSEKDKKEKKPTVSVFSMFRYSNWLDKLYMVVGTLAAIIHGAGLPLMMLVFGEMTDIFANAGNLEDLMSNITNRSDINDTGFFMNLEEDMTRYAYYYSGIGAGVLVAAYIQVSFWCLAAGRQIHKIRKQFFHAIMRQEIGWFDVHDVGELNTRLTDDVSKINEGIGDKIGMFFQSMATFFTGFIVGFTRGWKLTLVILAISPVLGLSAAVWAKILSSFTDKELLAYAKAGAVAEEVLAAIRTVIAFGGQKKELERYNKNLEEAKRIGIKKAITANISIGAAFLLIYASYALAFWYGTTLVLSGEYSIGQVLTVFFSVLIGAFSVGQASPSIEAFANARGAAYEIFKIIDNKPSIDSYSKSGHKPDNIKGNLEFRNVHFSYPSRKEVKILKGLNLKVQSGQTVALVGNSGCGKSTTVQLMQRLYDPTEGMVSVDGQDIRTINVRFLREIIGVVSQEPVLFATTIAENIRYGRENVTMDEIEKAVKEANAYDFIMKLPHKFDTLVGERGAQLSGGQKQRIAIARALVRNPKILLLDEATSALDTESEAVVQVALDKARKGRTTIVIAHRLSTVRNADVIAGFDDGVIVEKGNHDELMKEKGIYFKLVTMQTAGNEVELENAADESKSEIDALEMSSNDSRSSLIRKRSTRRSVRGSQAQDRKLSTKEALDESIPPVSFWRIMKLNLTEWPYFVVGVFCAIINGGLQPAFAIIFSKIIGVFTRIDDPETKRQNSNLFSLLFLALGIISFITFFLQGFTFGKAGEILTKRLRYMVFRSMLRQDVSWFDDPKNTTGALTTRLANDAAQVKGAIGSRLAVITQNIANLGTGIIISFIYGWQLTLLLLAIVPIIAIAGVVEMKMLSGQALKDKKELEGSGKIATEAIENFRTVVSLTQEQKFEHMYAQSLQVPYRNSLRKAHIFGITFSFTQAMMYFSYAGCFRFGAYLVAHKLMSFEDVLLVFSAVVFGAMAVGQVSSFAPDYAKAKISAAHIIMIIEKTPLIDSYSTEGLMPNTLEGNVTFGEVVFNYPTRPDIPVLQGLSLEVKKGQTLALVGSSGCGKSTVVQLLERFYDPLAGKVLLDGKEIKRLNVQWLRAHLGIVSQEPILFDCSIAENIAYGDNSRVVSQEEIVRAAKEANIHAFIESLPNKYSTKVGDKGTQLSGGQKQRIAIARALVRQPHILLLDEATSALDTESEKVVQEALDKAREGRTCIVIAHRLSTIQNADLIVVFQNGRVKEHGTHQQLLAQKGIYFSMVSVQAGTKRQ

[2] = biological target: T1, ATP-dependent translocase ABCB1; test: ABCG2 efflux pump inhibitor potency, dose response, Ig-MXP3 cells, JC-1, flow cytometry, set 2 (AID 504566); type: functional; settings: read-out: EC50_MICROM_;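 further: flow cytometry median green fluorescence of retained JC-1 dye; potency of efflux pump inhibition measured as rising substrate retention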
[3] = biological target: Nuclear receptor subfamily 5 group A member 2 (Homo sapiens, UniProt O00482); type: functional, cell-based;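 further: HEK293T cells transfected with LRH-1 and a StAR promoter luciferase reporter; potency for inhibitors that lower LRH-1 driven reporter light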
Sequence of Nuclear receptor subfamily 5 group A member 2 (O00482 whole entry): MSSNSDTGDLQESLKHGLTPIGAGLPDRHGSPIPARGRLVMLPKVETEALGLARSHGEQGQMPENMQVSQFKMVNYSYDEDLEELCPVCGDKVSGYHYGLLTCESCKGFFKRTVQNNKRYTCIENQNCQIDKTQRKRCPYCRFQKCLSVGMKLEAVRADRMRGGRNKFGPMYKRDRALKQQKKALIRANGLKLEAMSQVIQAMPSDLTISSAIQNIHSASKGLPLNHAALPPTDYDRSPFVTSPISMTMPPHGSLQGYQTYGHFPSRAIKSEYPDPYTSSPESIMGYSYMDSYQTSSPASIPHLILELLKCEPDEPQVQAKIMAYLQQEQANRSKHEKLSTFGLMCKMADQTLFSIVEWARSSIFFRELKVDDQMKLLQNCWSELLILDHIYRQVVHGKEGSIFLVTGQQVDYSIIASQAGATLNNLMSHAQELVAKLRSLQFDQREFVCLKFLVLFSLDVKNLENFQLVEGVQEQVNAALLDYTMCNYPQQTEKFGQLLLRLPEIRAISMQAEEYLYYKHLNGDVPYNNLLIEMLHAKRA

[4] = StAR promoter reporter inhibition counter-screen, dose response, counter-screen for LRH-1 inverse agonist project, cell-based, luminescence, luciferase reporter (AID 651969); type: functional
Steroidogenic factor 1 = Steroidogenic factor 1 (Homo sapiens, UniProt Q13285); test: Counterscreen for inverse agonists of the liver receptor homolog-1 (LRH-1; NR5A2): Luminescence-based cell-based high throughput dose response assay to identify inverse agonists of the Steroidogenic Factor 1 Nuclear Receptor (SF1; NR5A1).; type: functional
Sequence of Steroidogenic factor 1 (Q13285 whole entry): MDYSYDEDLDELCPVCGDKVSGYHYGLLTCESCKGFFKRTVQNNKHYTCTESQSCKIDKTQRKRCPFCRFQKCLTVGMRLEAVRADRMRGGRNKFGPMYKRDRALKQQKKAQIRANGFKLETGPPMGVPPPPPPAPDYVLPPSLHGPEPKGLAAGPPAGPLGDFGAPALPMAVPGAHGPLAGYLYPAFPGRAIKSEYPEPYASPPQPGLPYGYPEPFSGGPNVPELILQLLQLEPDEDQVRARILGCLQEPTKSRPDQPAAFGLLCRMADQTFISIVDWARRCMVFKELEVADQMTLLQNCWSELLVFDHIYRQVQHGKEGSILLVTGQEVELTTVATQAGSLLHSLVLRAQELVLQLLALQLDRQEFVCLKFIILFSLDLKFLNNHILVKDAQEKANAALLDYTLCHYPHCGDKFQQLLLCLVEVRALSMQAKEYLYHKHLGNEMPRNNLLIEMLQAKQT

[5] = biological target: ADP-ribosylation factor GTPase-activating protein 1 (Rattus norvegicus, UniProt Q62848); test: Fluorescence polarization-based biochemical high throughput dose response screening assay to identify inhibitors of ADP-ribosylation factor GTPase activating protein 1 (ARFGAP1).; type: functional
Sequence of ADP-ribosylation factor GTPase-activating protein 1 (Q62848 whole entry): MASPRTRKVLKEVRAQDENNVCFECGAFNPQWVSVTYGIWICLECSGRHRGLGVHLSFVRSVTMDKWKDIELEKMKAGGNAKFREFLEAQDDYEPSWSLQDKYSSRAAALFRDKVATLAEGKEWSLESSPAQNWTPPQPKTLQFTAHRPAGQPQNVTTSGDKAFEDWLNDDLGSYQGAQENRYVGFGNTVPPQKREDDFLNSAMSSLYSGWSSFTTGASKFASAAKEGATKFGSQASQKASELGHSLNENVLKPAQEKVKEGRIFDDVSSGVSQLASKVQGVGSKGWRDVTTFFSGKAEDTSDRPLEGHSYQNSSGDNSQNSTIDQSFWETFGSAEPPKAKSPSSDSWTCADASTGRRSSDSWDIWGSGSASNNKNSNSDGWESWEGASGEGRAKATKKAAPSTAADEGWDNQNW

[6] = biological target: T2, High affinity choline transporter 1 (Homo sapiens, UniProt Q9GZV3); test: CHT inhibitors, dose response, cell-based, 10-point CRC, membrane potential dye (AID 588401); type: functional;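 further: membrane potential dye fluorescence of choline-evoked depolarization via CHT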
T2 sequence (Q9GZV3 whole entry): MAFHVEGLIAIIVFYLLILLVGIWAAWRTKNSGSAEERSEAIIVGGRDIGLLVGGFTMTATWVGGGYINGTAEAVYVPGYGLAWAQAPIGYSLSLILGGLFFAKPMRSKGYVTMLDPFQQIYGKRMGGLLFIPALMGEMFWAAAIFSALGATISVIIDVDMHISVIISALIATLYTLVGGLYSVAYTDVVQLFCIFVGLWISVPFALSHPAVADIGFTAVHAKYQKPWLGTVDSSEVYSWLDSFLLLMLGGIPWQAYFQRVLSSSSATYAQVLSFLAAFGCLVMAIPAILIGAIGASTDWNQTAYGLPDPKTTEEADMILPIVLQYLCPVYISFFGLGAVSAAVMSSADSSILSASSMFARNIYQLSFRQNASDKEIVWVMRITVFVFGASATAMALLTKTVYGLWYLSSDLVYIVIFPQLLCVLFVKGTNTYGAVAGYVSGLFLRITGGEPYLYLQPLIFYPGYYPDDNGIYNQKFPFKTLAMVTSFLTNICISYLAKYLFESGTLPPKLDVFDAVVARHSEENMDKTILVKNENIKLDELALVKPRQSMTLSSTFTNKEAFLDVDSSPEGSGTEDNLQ

[7] = biological target: T2, High affinity choline transporter 1; test: CHT inhibitors, dose response, cell-based, 5-point CRC, membrane potential dye (AID 504840); type: functional
[8] = biological target: T2, High affinity choline transporter 1; test: inhibitors of CHT choline uptake, dose response, cell-based, 3H-choline uptake, CHT LV-AA trafficking mutant, CRC (AID 602208); type: functional

Compound: COc1cccc(C(=O)N2CCN(c3cc(-c4ccccc4)nc4cc(-c5cccc(Cl)c5)nn34)CC2)c1
- EC50 [1]: 2.22 µM (active)
- EC50 [2]: 2.6 µM (active)

Compound: CCCc1cc(=O)oc2c(C)c(OCC(=O)NCCCn3ccnc3)ccc12
- IC50 [3]: 35.9 µM (inactive)
- IC50 [4]: 35.9 µM (inactive)
- IC50 (Steroidogenic factor 1): 10.8 µM (inactive)

Compound: CCCOc1ccc(/C=N/NC(=O)c2ccc(Cn3cc([N+](=O)[O-])cn3)o2)cc1
- IC50 [5]: 49 µM (inactive)

Compound: O=C(Nc1ccc(S(=O)(=O)Nc2cnc3ccccc3n2)cc1)c1ccc(Cl)cc1Cl
- IC50 [6]: 3.25 µM (active)
- IC50 [7]: 9.55 µM (active)
- IC50 [8]: 2.82 µM (active)
